Measurements published in US20210405030A1, “MEANS AND METHODS FOR DETERMINING METABOLIC ADAPTATION” (EnFin GmbH, priority 2018, published 2021).
Read-outs that look alike come from different tables or passages of the source. Square brackets hold non-standard residues; d marks the D form. Ends that are not written are not given here. pY = N[C@@H](Cc1ccc(OP(=O)(O)O)cc1)C(=O)O

Key:
PBMCs = assay: Proliferation and survival of PBMCs in immuno activating (10% FCS) or immuno suppressive (starvation) environment (FIG. 1); format: cell-based, human; conditions: for proliferation and survival: GM-CSF 20 ng/ml, HMGB1 variants 200 nM
Method: FIG. 1: Proliferation of PBMCs under the indicated conditions; P-M2 tide: induction of glycolysis by incubation with P-M2 tide; A) control (no activator compound); B) hGM-CSF added; C) to G) HMGB1 or variant thereof added.
To evaluate to what extent and by which agent anerg immune cells could be stimulated we used recombinant human GM-CSF (20 ng/ml, FIG. 1 B) or recombinant/synthetic variants of the immune system stimulating human HMGB1 cytokine (200 nM, FIG. 1 C-G).

[1] = tested on: Healthy blood donor mononuclear lymphocytes; conditions: for Blood test result: reference interval 2.0±0.3
From the text: The cellular model used herein discriminates between an immuno activating environment and an immune suppressive environment. An immuno activating environment comprises supplementation of growth factors/serum and allows growth and survival of blood derived immune cells. An immuno suppressive environment comprises deprivation of growth factors/serum (starvation) and diminishes growth and survival of blood derived immune cells. […] In both conditions a switch to anaerobic glycolysis was induced pharmacologically and proliferation and survival of immune cells was compared to unmodified immune cells.
Healthy blood donor mononuclear lymphocytes were cultured under normoxia (21%) and anoxia (0%). Enzyme activities of PK low affinity (PK la), PK high affinity (PK ha) and Lactate dehydrogenase (LDH) were measured in the homogenates.

GM-CSF: human granulocyte monocyte colony stimulating factor, recombinant
proliferation and survival (PBMCs; immuno-suppressed (starved) cells showing a switch to anaerobic glycolysis): fully rescued from cell death and showed increased proliferation (and survival) | proliferation and survival (PBMCs; immuno-suppressed (starved) cells with no switch to anaerobic glycolysis): partly rescued

GGAVDDD[pY]AQFANGG [P-M2 tide]
Blood test result ([1]; 10% FCS (immuno activating environment) + P-M2 tide): 0.30 | shift from OXPHOS to anaerobic glycolysis ([1]; ex vivo human immune cells, blocking the PK tetramer): enables immune cells to shift from OXPHOS to anaerobic glycolysis | Blood test result ([1]; starvation (immune suppressive environment) + P-M2 tide): 1.37

B1: Wildtype human recombinant HMGB1: high mobility group box 1 protein, immuno-stimulating cytokine and DAMP (SEQ ID NO:3) (protein, listed as Homo sapiens)
chain: MGKGDPKKPRGKMSSYAFFVQTCREEHKKKHPDASVNFSEFSKKCSERWKTMSAKEKGKFEDMAKADKARYEREMKTYIPPKGETKKKFKDPNAPKRPPSAFFLFCSEYRPKIKGEHPGLSIGDVAKKLGEMWNNTAADDKQPYEKKAAKLKEKYEKDIAAYRAKGKPDAAKKGVVKAEKSKKKKEEEEDEEDEEDEEEEEDEEDEDEEEDDDDE
proliferation and survival of immune cells (PBMCs; 200 nM, condition not further specified): failed to increase proliferation and survival
